The results in this text go back to ChEMBL document CHEMBL6109049, “Fine-tuning probes for fluorescence polarization binding assays of bivalent ligands against polo-like kinase 1 using full-length protein” (Bioorg Med Chem, 2025).

Where a SMILES comes first, the peptide text is derived from it. [ ]: non-standard residue; d: D form. The star is where a group is joined. BI2536acyl = CC[C@@H]1C(=O)N(C)c2cnc(Nc3ccc(C(=O)*)cc3OC)nc2N1C1CCCC1; His(π-(CH2)8Ph) = N[C@@H](Cc1cncn1CCCCCCCCc1ccccc1)C(=O)O; pT = C[C@@H](OP(=O)(O)O)[C@H](N)C(=O)O; AEEA = NCCOCCOCC(=O)O

The target of experiment [1] is T1, Serine/threonine-protein kinase PLK1 (Homo sapiens, UniProt P53350). The experiment in a line: Displacement of biotin-Ahx-PMQSpTPLN from myc-tagged Plk1 in cytosolic lysates (unknown origin) preincubated for 1 hr followed by biotinylated probe addition and measured after 1 hr by ELISA. The experiment is classed as subcellular, Cytosol. (An ELISA detects its analyte on a solid surface through an enzyme-linked reagent.)

Experiment [2] has as its target T1, Serine/threonine-protein kinase PLK1. The experiment in a line: Displacement of FITC-miniPEG-FDPPLHSpTA from full length Plk1 (unknown origin) preincubated for 30 mins followed by fluorescent probe addition and measured after 30 mins by fluorescence polarization assay. A general note: Fluorescence polarisation rises when a labelled molecule tumbles more slowly, as on binding a larger partner.

T1 sequence (P53350 whole entry): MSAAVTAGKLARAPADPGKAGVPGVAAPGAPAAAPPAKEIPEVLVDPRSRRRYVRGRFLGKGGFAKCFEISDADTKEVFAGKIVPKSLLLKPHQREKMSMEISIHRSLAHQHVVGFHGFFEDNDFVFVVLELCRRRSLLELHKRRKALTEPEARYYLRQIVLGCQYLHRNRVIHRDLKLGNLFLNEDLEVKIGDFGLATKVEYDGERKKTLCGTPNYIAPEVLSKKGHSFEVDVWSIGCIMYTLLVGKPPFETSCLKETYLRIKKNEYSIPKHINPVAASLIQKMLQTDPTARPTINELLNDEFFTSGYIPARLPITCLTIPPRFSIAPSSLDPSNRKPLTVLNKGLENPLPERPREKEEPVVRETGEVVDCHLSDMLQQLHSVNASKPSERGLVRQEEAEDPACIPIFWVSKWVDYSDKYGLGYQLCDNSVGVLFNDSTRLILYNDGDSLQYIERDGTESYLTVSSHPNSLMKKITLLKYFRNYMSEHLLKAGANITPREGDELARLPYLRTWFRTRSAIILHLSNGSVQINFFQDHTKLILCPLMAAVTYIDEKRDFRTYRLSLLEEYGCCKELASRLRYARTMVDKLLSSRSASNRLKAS

For `CC[C@@H]1C(=O)N(C)c2cnc(Nc3ccc(C(=O)NCCCC[C@H](NC(C)=O)C(=O)NCCOCCOCC(=O)NCCOCCOCC(=O)NCCOCCOCC(=O)NCCOCCOCC(=O)N4CCC[C@H]4C(=O)N[C@@H](CC(C)C)C(=O)N[C@@H](Cc4c[nH]cn4)C(=O)N[C@@H](CO)C(=O)N[C@H](C(N)=O)[C@@H](C)O)cc3OC)nc2N1C1CCCC1` (Ac-K(BI2536acyl)[AEEA][AEEA][AEEA][AEEA]PLHST-NH2), the IC50 entry in experiment [1] and in experiment [2] was “Not_active” in each case.
For `CC[C@@H]1C(=O)N(C)c2cnc(Nc3ccc(C(=O)NCCCC[C@H](NC(C)=O)C(=O)NCCOCCOCC(=O)NCCOCCOCC(=O)NCCOCCOCC(=O)NCCOCCOCC(=O)N4CCC[C@H]4C(=O)N[C@@H](CC(C)C)C(=O)N[C@@H](Cc4cncn4CCCCCCCCc4ccccc4)C(=O)N[C@@H](CO)C(=O)N[C@H](C(N)=O)[C@@H](C)O)cc3OC)nc2N1C1CCCC1` (Ac-K(BI2536acyl)[AEEA][AEEA][AEEA][AEEA]PL[His(π-(CH2)8Ph)]ST-NH2), the IC50 entry in experiment [1] and in experiment [2] was “Not_active” in each case.
Take `CC[C@@H]1C(=O)N(C)c2cnc(Nc3ccc(C(=O)NCCCC[C@H](NC(C)=O)C(=O)NCCOCCOCC(=O)N[C@@H](Cc4cncn4CCCCCCCCc4ccccc4)C(=O)N[C@@H](CO)C(=O)N[C@H](C(N)=O)[C@@H](C)OP(=O)(O)O)cc3OC)nc2N1C1CCCC1` (Ac-K(BI2536acyl)[AEEA][His(π-(CH2)8Ph)]S[pT]-NH2): in experiment [1], the IC50 entry is on record as “Not_active”.
Consider `CC[C@@H]1C(=O)N(C)c2cnc(Nc3ccc(C(=O)NCCCC[C@H](NC(=O)COCCOCCNC(=O)COCCOCCNC(=O)COCCOCCNC(=O)COCCOCCNC(=O)[C@@H](NC(=O)[C@H](CO)NC(=O)[C@H](Cc4c[nH]cn4)NC(=O)[C@H](CC(C)C)NC(=O)[C@@H]4CCCN4C(C)=O)[C@@H](C)O)C(N)=O)cc3OC)nc2N1C1CCCC1` (Ac-PLHST[AEEA][AEEA][AEEA][AEEA]K(BI2536acyl)-NH2), for which the IC50 entry in experiment [1] and in experiment [2] was “Not_active” each time.
Consider `CC[C@@H]1C(=O)N(C)c2cnc(Nc3ccc(C(=O)NCCCC[C@H](NC(=O)COCCOCCNC(=O)COCCOCCNC(=O)COCCOCCNC(=O)COCCOCCNC(=O)[C@@H](NC(=O)[C@H](CO)NC(=O)[C@H](Cc4cncn4CCCCCCCCc4ccccc4)NC(=O)[C@H](CC(C)C)NC(=O)[C@@H]4CCCN4C(C)=O)[C@@H](C)O)C(N)=O)cc3OC)nc2N1C1CCCC1` (Ac-PL[His(π-(CH2)8Ph)]ST[AEEA][AEEA][AEEA][AEEA]K(BI2536acyl)-NH2), for which the IC50 entry in experiment [1] and in experiment [2] was “Not_active” each time.
On to `CC[C@@H]1C(=O)N(C)c2cnc(Nc3ccc(C(=O)NCCCC[C@H](NC(=O)COCCOCCNC(=O)[C@@H](NC(=O)[C@H](CO)NC(=O)[C@H](Cc4cncn4CCCCCCCCc4ccccc4)NC(C)=O)[C@@H](C)OP(=O)(O)O)C(N)=O)cc3OC)nc2N1C1CCCC1` (Ac-[His(π-(CH2)8Ph)]S[pT][AEEA]K(BI2536acyl)-NH2), for which the IC50 entry in experiment [1] is reported as “Not_active”.
